Data on 6 compounds can be found in patent publication US7910729B2, “Azulenyl nitrone spin trapping agents, methods of making and using same” (The Florida International University Board of Trustees, priority 2004, dated 2011).

Usually melting point stands for the temperature, or range, at which the solid turns liquid.

The nature of data set [1]: Antioxidant assay: AIBN-initiated oxidation of cumene to cumene hydroperoxide, followed by 1H NMR. Format: physicochemical. The note with it: atmospheric oxygen, 37° C., FIG. 1. The procedure: In the following example, comparative testing of the antioxidant activity of azulenyl nitrone compounds of the invention against a control, was performed. The assay was based on the well-established oxidation of cumene to cumene hydroperoxide by atmospheric oxygen at 37° C. in the presence of the free radical initiator AIBN (Blanchard, H. S. J. Am. Chem. Soc. (1959) 81:4548; Characterization of products formed during the autoxidation of beta carotene. Handelman, G. J., van Kujik, F. J. G. M., Chatterjee, A., Krinsky, N. I. Free Rad. Biol. Med. (1991) 10: 427-37). The progress of the peroxidation reaction is conveniently followed and quantified by 1H NMR spectroscopy by monitoring the appearance and increasing integration of the singlet arising from the methyl groups of cumene hydroperoxide. The use of a long, low power, selective pulse (Shaped radiofrequency pulses in high resolution NMR. Freeman, R. J. Prog. Nuc. Mag. Spec. (1998) 32:59) allowed the growth of the cumene hydroperoxide methyl group singlet to be accurately measured in the presence of a huge excess of cumene. This was shown by using known concentrations of commercially available cumene hydroperoxide to calibrate the peak areas.

Data set [2] relates to lipopolysaccharide (LPS) administered to rats. The settings on record: cited from earlier work.
The conditions of data set [3]: aqueous solution at pH 7 and 20° C.; cited from earlier work.
The next data set concerns aged rats. The note with it: chronic treatment; cited from earlier work.
For data set [4], the system named is human diploid fibroblast cells. The note with it: cited from earlier work.
The subject of the next data set is aged animal model. The settings on record: daily intraperitoneal injection, male and female populations; cited from earlier work.

Take `Cc1ccc(C(C)C)cc2c(/C=[N+](\[O-])C(C)(C)C)cc(/C=C/c3cc(/C=[N+](\[O-])C(C)(C)C)c4cc(C(C)C)ccc(C)c3-4)c1-2` [STAZN, Stilbazulenyl Nitrone]: the “potency as nitrone-based chain breaking antioxidants / free-radical scavenging/antioxidant activity” value in data set [1] is on record as “remarkable potency”.
Take `CC1(C)Cc2ccccc2C=[N+]1[O-]` [MDL 101,002]: in data set [2], the LPS-induced leukopenia result is on record as “failed to prevent leukopenia”; the LPS-induced pulmonary edema entry was “prevented pulmonary edema”; the LPS-induced thrombocytopenia entry is “partially reduced thrombocytopenia”; the “organ dysfunction and cytokine secretion induced by LPS” value is recorded as “reduces”.
As to `Cc1ccc(C(C)C)cc2c(C=C3SCCCS3)cc(/C=C/c3cc(/C=[N+](\[O-])C(C)(C)C)c4cc(C(C)C)ccc(C)c3-4)c1-2` [STNXY], in data set [1], the “potency as nitrone-based chain breaking antioxidants / free-radical scavenging/antioxidant activity” value is reported as “remarkable potency”.
Consider `Cc1c(C)c2c(c(C)c1O)CC[C@@](C)(CCC[C@H](C)CCC[C@H](C)CCCC(C)C)O2` [vitamin E, alpha-tocopherol], for which the “one-electron oxidative potential (vs. NHE)” value in data set [3] was 0.48 V. For the same compound, in the data set with aged rats, the “age-related changes in cognitive performance” value is on record as “benefit (i.e., improve)”.
On to `COC=Cc1cc(/C=C/c2cc(/C=[N+](\[O-])C(C)(C)C)c3cc(C(C)C)ccc(C)c2-3)c2c(C)ccc(C(C)C)cc1-2` [I], for which the melting point is 235 °C (dec.).
On to `CC(C)(C)[N+]([O-])=Cc1ccccc1` [PBN, alpha-phenyl N-tert-butylnitrone], for which, in data set [4], the onset of senescence entry is recorded as “effectively delayed the onset of senescence”. The “age-related changes in cognitive performance” value with aged rats was “benefit (i.e., improve)”. In the data set on aged animal model, the lifespan result was “remarkable extension of the lifespan”.
